Test results: patent EP2396329B1, “COMPOUNDS FOR THE TREATMENT OF HEPATITIS C” (priority 2009, dated 2010)
pEC50, pIC50: −log10 of the molar value. Read-outs that look alike come from different tables or passages of the source.

Legend:
[1] = test system: HCV replicon; assay: HCV replicon assay (FRET or luciferase readout); format: cell-based; details: Hepatitis C virus
Text: FRET Assay Preparation. To perform the HCV FRET screening assay, 96-well cell culture plates were used. The FRET peptide (Anaspec, Inc.) (Taliani et al., Anal. Biochem. 1996, 240, 60-67) contains a fluorescence donor, EDANS, near one end of the peptide and an acceptor, DABCYL, near the other end. The fluorescence of the peptide is quenched by […] resonance energy transfer (RET) between the donor and the acceptor, but as the NS3 protease cleaves the peptide the products are released from RET quenching and the fluorescence of the donor becomes apparent. The assay reagent was made as follows: 5X cell Luciferase cell culture lysis reagent from Promega (#E153A) diluted to 1X with dH2O, NaCl added to 150 mM final, the FRET peptide diluted to 20 µM final from a 2 mM stock.
To prepare plates, HCV replicon cells, with or without a Renilla luciferase reporter gene, were trypsinized and placed into each well of a 96-well plate with titrated test compounds added in columns 3 through 12; columns 1 and 2 contained a control compound (HCV protease inhibitor), and the bottom row contained cells without compound. The plates were then placed in a CO2 incubator at 37 °C.
Assays. Subsequent to addition of the test compounds described above (FRET Assay Preparation), at various times the plate was removed and Alamar blue solution (Trek Diagnostics, #00-100) was added per well as a measure of cellular toxicity. After reading in a Cytoflour 4000 instrument (PE Biosystems), plates were rinsed with PBS and then used for FRET assay by the addition of 30 ul of the FRET peptide assay reagent described above (FRET Assay Preparation) per well. The plate was then placed into the Cytoflour 4000 instrument which had been set to 340 excite/490 emission, automatic mode for 20 cycles and the plate read in a kinetic mode. Typically, the signal to noise using an endpoint analysis after the reads was at least three-fold. Alternatively, after Alamar blue reading, plates were rinsed with PBS, 50 ul of DMEM (high glucose) without phenol red was added and plates were then used for luciferase assay using the Promega Dual-Glo Luciferase Assay System.
Compound analysis was determined by quantification of the relative HCV replicon inhibition and the relative cytotoxicity values. To calculate cytoxicity values, the average Alamar Blue fluorescence signals from the control wells were set as 100% non-toxic. The individual signals in each of the compound test wells were then divided by the average control signal and multiplied by 100% to determine […]. To calculate the HCV replicon inhibition values, an average background value was obtained from the two wells containing the highest amount of HCV protease inhibitor at the end of the assay period. These numbers were similar to those obtained from naïve Huh-7 cells.
The background numbers were then subtracted from the average signal obtained from the control wells and this number was used as 100% activity. The individual signals in each of the compound test wells were then divided by the averaged control values after background subtraction and multiplied by 100% to determine percent activity. EC50 values for a protease inhibitor titration were calculated as the concentration which caused a 50% reduction in FRET or luciferase activity. The two numbers generated for the compound plate, percent cytoxicity and percent activity were used to determine compounds of interest for further analysis.

[2] = target: T1, HCV NS5B (Hepatitis C virus genotype 1b, UniProt Q9WMX2); assay: HCV NS5B RdRp enzyme assay (standard or modified); format: biochemical; details: HCV NS5B RdRp enzyme, genotype 1b; read-out: IC50
T1 construct: The protein was expressed with an 18 amino acid C-terminal truncation to enhance the solubility; made in house; host or cells: E. coli BL21(DE3)
T1 sequence (Q9WMX2 2420-2992): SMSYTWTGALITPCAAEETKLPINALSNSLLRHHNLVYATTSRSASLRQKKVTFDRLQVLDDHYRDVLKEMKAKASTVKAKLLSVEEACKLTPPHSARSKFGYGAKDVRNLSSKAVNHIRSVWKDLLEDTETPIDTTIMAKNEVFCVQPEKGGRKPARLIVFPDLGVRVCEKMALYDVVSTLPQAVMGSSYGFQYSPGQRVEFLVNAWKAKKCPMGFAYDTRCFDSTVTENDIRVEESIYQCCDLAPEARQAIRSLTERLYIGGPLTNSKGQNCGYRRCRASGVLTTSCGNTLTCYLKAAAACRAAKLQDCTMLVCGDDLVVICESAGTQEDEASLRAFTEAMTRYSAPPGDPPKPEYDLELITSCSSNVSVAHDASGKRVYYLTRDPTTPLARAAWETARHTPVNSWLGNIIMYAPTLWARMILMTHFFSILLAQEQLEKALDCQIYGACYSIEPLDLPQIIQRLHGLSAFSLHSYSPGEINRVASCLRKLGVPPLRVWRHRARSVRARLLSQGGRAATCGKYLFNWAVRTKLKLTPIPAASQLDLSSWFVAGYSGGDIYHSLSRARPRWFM
Protocol: HCV NS5B RdRp cloning, expression, and purification. The cDNA encoding the NS5B protein of HCV, genotype 1b, was cloned into the pET21a expression vector. The protein was expressed with an 18 amino acid C-terminal truncation to enhance the solubility. The E. coli competent cell line BL21(DE3) was used for expression of the protein. Cultures were grown at 37 °C for ~ 4 hours until the cultures reached an optical density of 2.0 at 600 nm. The cultures were cooled to 20 °C and induced with I mM IPTG. Fresh ampicillin was added to a final concentration of 50 µg/ml and the cells were grown overnight at 20 °C.
Cell pellets (3L) were lysed for purification to yield 15-24 mgs of purified NS5B. The lysis buffer consisted of 20 mM Tris-HCl, pH 7.4, 500 mM NaCl, 0.5% triton X-100, 1 mM DTT, 1mM EDTA, 20% glycerol, 0.5 mg/ml lysozyme, 10 mM MgCl2, 15 ug/ml deoxyribonuclease I, and Complete TM protease inhibitor tablets (Roche). After addition of the lysis buffer, frozen cell pellets were resuspended using a tissue homogenizer. To reduce the viscosity of the sample, aliquots of the lysate were sonicated on ice using a microtip attached to a Branson sonicator. The sonicated lysate was centrifuged at 100,000 x g for 1hr at 4 °C and filtered through a 0.2 µm filter unit (Corning).
The protein was purified using three sequential chromatography steps: Heparin sepharose CL-6B, polyU sepharose 4B, and Hitrap SP sepharose (Pharmacia). The chromatography buffers were identical to the lysis buffer but contained no lysozyme, deoxyribonuclease I, MgCl2 or protease inhibitor and the NaCl concentration of the buffer was adjusted according to the requirements for charging the protein onto the column. Each column was eluted with a NaCl gradient which varied in length from 5-50 column volumes depending on the column type. After the final chromatography step, the resulting purity of the enzyme is >90% based on SDS-PAGE analysis. The enzyme was aliquoted and stored at -80 °C.
Standard HCV NS5B RdRp enzyme assay. HCV RdRp genotype 1b assays were run in a final volume of 60 µl in 96 well plates (Costar 3912). The assay buffer is composed of 20 mM Hepes, pH 7.5, 2.5 mM KCI, 2.5 mM MgCl2, 1 mM DTT, 1.6 U RNAse inhibitor (Promega N2515), 0.1 mg/ml BSA (Promega R3961), and 2 % glycerol. All compounds were serially diluted (3-fold) in DMSO and diluted further in water such that the final concentration of DMSO in the assay was 2%. HCV RdRp genotype Ib enzyme was used at a final concentration of 28 nM. A polyA template was used at.6 nM, and a biotinylated oligo-dT12 primer was used at 180 nM final concentration. Template was obtained commercially (Amersham 27-4110). Biotinylated primer was prepared by Sigma Genosys. 3H-UTP was used at 0.6 µCi (0.29 µM total UTP). Reactions were initiated by the addition of enzyme, incubated at 30 °C for 60 min, and stopped by adding 25 µl of 50 mM EDTA containing SPA beads (4 µg/µl, Amersham RPNQ 0007). Plates were read on a Packard Top Count NXT after > 1hr incubation at room temperature.
Modified HCV NS5B RdRp enzyme assay. A modified enzyme assay was performed essentially as described for the standard enzyme assay except for the following: The biotinylated oligo dT12 primer was precaptured on streptavidin-coated SPA beads by mixing primer and beads in assay buffer and incubating at room temperature for one hour. Unbound primer was removed after centrifugation. The primer-bound beads were resuspended in 20 mM Hepes buffer, pH 7.5 and used in the assay at final concentrations of 20 nM primer and 0.67 µg/µl beads. Order of addition in the assay: enzyme (14 nM) was added to diluted compound followed by the addition of a mixture of template (0.2 nM), 3H-UTP (0.6 µCi, 0.29 µM), and primer-bound beads, to initiate the reaction; concentrations given are final. Reactions were allowed to proceed for 4 hours at 30° C.
IC50 values for compounds were determined using seven different [I]. […]

[3] = HCV replicon cells, FRET or luciferase activity, read-out: EC50

Row | Structure (SMILES) | pEC50 [1, 3] | pIC50 [2] | pEC50 [1]
1 | COC[C@@H]1CN(C(=O)c2c(C)nn(C)c2C2=Cc3cc(OC)ccc3-c3c(C4CCCCC4)c4ccc(C(=O)NS(=O)(=O)C(C)C)cc4n3C2)CCO1 | 6.30 to 9.00 | 6.30 to 9.00 | –
2 | COc1ccc2c(c1)C=C(c1c(C(=O)N3CCN(C)CC3)c(C)nn1C)Cn1c-2c(C2CCCCC2)c2ccc(C(=O)NS(=O)(=O)C(C)C)cc21 | 6.30 to 9.00 | 6.30 to 9.00 | –
3 | COc1ccc2c(c1)C=C(c1c(C(=O)N3CCOCC3)c(C(C)C)nn1C)Cn1c-2c(C2CCCCC2)c2ccc(C(=O)NS(=O)(=O)C(C)C)cc21 | 6.30 to 9.00 | 6.30 to 9.00 | –
4 | COc1ccc2c(c1)C=C(c1c(C(=O)N3C[C@@H](C)O[C@@H](C)C3)c(C(C)C)nn1C)Cn1c-2c(C2CCCCC2)c2ccc(C(=O)NS(=O)(=O)C(C)C)cc21 | 6.30 to 9.00 | 6.30 to 9.00 | –
5 | CCOC(=O)c1c(C)nn(CC)c1C1=Cc2cc(OC)ccc2-c2c(C3CCCCC3)c3ccc(C(=O)O)cc3n2C1 | < 6.30 | 6.30 to 9.00 | –
6 | CCOC(=O)c1c(C)nn(CC)c1C1=Cc2cc(OC)ccc2-c2c(C3CCCCC3)c3ccc(C(=O)NS(=O)(=O)C(C)C)cc3n2C1 | < 6.30 | 6.30 to 9.00 | –
7 | CCOC(=O)c1c(C)nn(CC)c1C1=Cc2cc(OC)ccc2-c2c(C3CCCCC3)c3ccc(C(N)=O)cc3n2C1 | < 6.30 | 6.30 to 9.00 | –
8 | CCOC(=O)c1cnn(CC)c1C1=Cc2cc(OC)ccc2-c2c(C3CCCCC3)c3ccc(C(=O)OC(C)(C)C)cc3n2C1 | < 6.30 | < 6.30 | –
9 | CCOC(=O)c1cnn(CC)c1C1=Cc2cc(OC)ccc2-c2c(C3CCCCC3)c3ccc(C(=O)O)cc3n2C1 | < 6.30 | 6.30 to 9.00 | –
10 | CCOC(=O)c1cnn(CC)c1C1=Cc2cc(OC)ccc2-c2c(C3CCCCC3)c3ccc(C(=O)NS(=O)(=O)C(C)C)cc3n2C1 | < 6.30 | 6.30 to 9.00 | –
11 | CCn1ncc(C(=O)N2C[C@@H](C)O[C@@H](C)C2)c1C1=Cc2cc(OC)ccc2-c2c(C3CCCCC3)c3ccc(C(=O)NS(=O)(=O)C(C)C)cc3n2C1 | 6.30 to 9.00 | 6.30 to 9.00 | –
12 | CCn1nc(C)c(C(=O)N2C[C@@H](C)O[C@@H](C)C2)c1C1=Cc2cc(OC)ccc2-c2c(C3CCCCC3)c3ccc(C(=O)NS(=O)(=O)N(C)C)cc3n2C1 | 6.30 to 9.00 | 6.30 to 9.00 | –
13 | CCn1nc(C)c(C(=O)N2C[C@@H](C)O[C@@H](C)C2)c1C1=Cc2cc(OC)ccc2-c2c(C3CCCCC3)c3ccc(C(=O)NS(=O)(=O)C4CC4)cc3n2C1 | 6.30 to 9.00 | 6.30 to 9.00 | –
14 | COc1ccc2c(c1)C=C(c1nn(C(C)C)c(C)c1C(=O)N1C[C@@H](C)N(C)[C@@H](C)C1)Cn1c-2c(C2CCCCC2)c2ccc(C(=O)NS(=O)(=O)C(C)C)cc21 | 6.30 to 9.00 | 6.30 to 9.00 | –
15 | CCN1CC2CC1CN2C(=O)c1c(C)nn(CC)c1C1=Cc2cc(OC)ccc2-c2c(C3CCCCC3)c3ccc(C(=O)NS(=O)(=O)C(C)C)cc3n2C1 (stereo not shown) | – | 6.30 to 9.00 | 6.30 to 9.00
16 | CCn1nc(C)c(C(=O)N2CCOCC2)c1C1=Cc2cc(OC)ccc2-c2c(C3CCCCC3)c3ccc(C(=O)NS(=O)(=O)C(C)C)cc3n2C1 | 6.30 to 9.00 | 6.30 to 9.00 | –
17 | COc1ccc2c(c1)C=C(c1c(C(=O)N3C[C@@H](C)O[C@@H](C)C3)nnn1C(C)C)Cn1c-2c(C2CCCCC2)c2ccc(C(=O)NS(=O)(=O)C(C)C)cc21 | 6.30 to 9.00 | 6.30 to 9.00 | –
18 | COc1ccc2c(c1)C=C(c1c(C(=O)N3C[C@@H](C)N(C)[C@@H](C)C3)nnn1C(C)C)Cn1c-2c(C2CCCCC2)c2ccc(C(=O)NS(=O)(=O)C(C)C)cc21 | 6.30 to 9.00 | 6.30 to 9.00 | –
19 | COc1ccc2c(c1)C=C(c1c(C(=O)N3C[C@@H](C)O[C@@H](C)C3)ncn1C(C)C)Cn1c-2c(C2CCCCC2)c2ccc(C(=O)NS(=O)(=O)C(C)C)cc21 | 6.30 to 9.00 | 6.30 to 9.00 | –
20 | COc1ccc2c(c1)C=C(c1c(C(=O)N3CCOCC3)ncn1C(C)C)Cn1c-2c(C2CCCCC2)c2ccc(C(=O)NS(=O)(=O)C(C)C)cc21 | 6.30 to 9.00 | 6.30 to 9.00 | –
21 | COc1ccc2c(c1)C=C(c1c(C(=O)N3C[C@@H](C)N(C)[C@@H](C)C3)ncn1C(C)C)Cn1c-2c(C2CCCCC2)c2ccc(C(=O)NS(=O)(=O)C(C)C)cc21 | 6.30 to 9.00 | 6.30 to 9.00 | –
22 | COc1ccc2c(c1)C=C(c1ncn(C(C)C)c1C(=O)N1C[C@@H](C)O[C@@H](C)C1)Cn1c-2c(C2CCCCC2)c2ccc(C(=O)NS(=O)(=O)N(C)C)cc21 | 6.30 to 9.00 | 6.30 to 9.00 | –
23 | COc1ccc2c(c1)C=C(c1ncn(C(C)C)c1C(=O)N1CCOCC1)Cn1c-2c(C2CCCCC2)c2ccc(C(=O)NS(=O)(=O)N(C)C)cc21 | 6.30 to 9.00 | 6.30 to 9.00 | –
24 | COc1ccc2c(c1)C=C(c1c(C(=O)N3C[C@@H](C)N(C)[C@@H](C)C3)nnn1C(C)C)Cn1c-2c(C2CCCCC2)c2ccc(C(=O)NS(=O)(=O)N(C)C)cc21 | 6.30 to 9.00 | 6.30 to 9.00 | –
25 | COc1ccc2c(c1)C=C(c1c(C(=O)N3C[C@@H](C)O[C@@H](C)C3)nnn1C(C)C)Cn1c-2c(C2CCCCC2)c2ccc(C(=O)NS(=O)(=O)N(C)C)cc21 | 6.30 to 9.00 | 6.30 to 9.00 | –
26 | COc1ccc2c(c1)C=C(c1c(C(=O)N3CCOCC3)nnn1C(C)C)Cn1c-2c(C2CCCCC2)c2ccc(C(=O)NS(=O)(=O)N(C)C)cc21 | 6.30 to 9.00 | 6.30 to 9.00 | –
